Data on 13 molecules can be found in patent US8138184B2, “Isoxazole derivatives and pharmaceutical compositions comprising the same” (Kaohsiung Medical University, priority 2008, dated 2012).

The subject of data set [1] is Human adipose tissue derived stem cells (hADSCs). Description: Cytotoxicity assay by lactate dehydrogenase (LDH) leakage in hADSCs. The format is cell-based. The following applies: 10 μM, % of total cell toxicity. As for the experimental part:
(§1) Human adipose tissue derived stem cells (hADSCs), which is derived from adipose tissue, were selected an maintained in a keratinocyte SFM medium (Gibco BRL, Gaithersburg, Md.) supplemented with 5% FBS, 100 U/ml of penicillin and streptomycin.
(§2) New synthetic compounds were dissolved in DMSO to a final concentration of 10 mM and stored at −20° C. The concentration used was 10 μM and freshly diluted to the medium with a final concentration of DMSO at 0.1%. Control cultures were treated with the same amount of DMSO as used in the corresponding experiments.
Lactate dehydrogenase (LDH) leakage from cells was measured to quantify the cytotoxicity by using a cytotoxicity detection kit (Roche, Germany) (Crowston, J. G. et al Invest. Ophthalmol. Vis. Sci. 1998, 39, 449). Cells were previously seeded into 48-well plates (4×10^4 cells/well). After a drug treatment, the supernatants and cell layers of the cultures were collected for assay. According to the manufacturer's guidelines for the detection kit, cell layers were lysed with 1% TritonX-100, and cell lysates and supernatants were assayed in a 96-well plate, respectively. Briefly, 100 μL of catalyst solution was added in each assay well for 20 min. Absorbance was measured with an ELISA reader with a 490 nm filter. LDH leakage was shown as relative activity (% of total cell toxicity).

Data set [2] in a line: Cell viability by MTT assay in hADSCs. The format is cell-based, human. The following applies: human, human adipose tissue derived stem cells (hADSCs), % of control. As for the experimental part:
as §1, §2
The MTT assay is a calorimetric assay based on the ability of the viable cells to reduce a soluble yellow tetrazolium salt to blue formazan crystals (Carmichael, J. et. el. Cancer Research 1987, 47, 936). After compound treatments, 350 μL of MTT solution ([…] in PBS) were added to each well and incubated for 4 hrs. DMSO was then added for another 0.5 hrs to thoroughly dissolve the dark blue crystals. The absorbance at 570 nm was measured with an ELISA reader. Inhibition of mitochondrial metabolism was shown as relative activity (% of control).
Background: Tetrazolium assays rely on reduction of a dye to a coloured formazan, in cell work by metabolically active cells.

For data set [3], the system named is NCI-H460 cells (non-small-cell lung cancer). The data set is described as follows: Cytotoxicity assay (MTS reduction), NCI-H460. The data set is classed as cell-based, human. To be noted: for inhibition of growth of NCI-H460 (in words) / activity at 4 µg/mL: 4 μg/mL; for activity at 4 µg/mL / activity at 20 µg/mL: Homo sapiens, NCI-H460, 72 h, 3 days, % of DMSO control, read-out: Growth percentage NCI-H460 (Lung); for activity at 20 µg/mL: 20 μg/mL. As for the experimental part: (§3) MCF-7 cells (human breast adenocarcinoma), NCI-H460 cells (non-small-cell lung cancer) and SF-268cells (glioblastoma cells) were cultured in a Dulbecco's modified Eagle's medium supplemented with a 10% fetal calf serum and a nonessential amino acid (Life Technologies, Inc.) and maintained at 37° C. in a humidified incubator with 5% CO2.
(§4) Human cancer cells were seeded in 96-well microtiter plates at a density of 6500, 2500 and 7500 cells/well in 100 μl of culture medium for MCF-7, NCI-H460, and SF-268, respectively. […] Cells were treated with test compounds for 3 days. Cell viability was determined by the 5-[3-(carboxymethoxy)-phenyl]-2-(4,5-dimethylthiazolyl)-3-(4-sulfophenyl)tetrazolium salt (MTS) reduction assay. Actinomycin D (10 μM, final concentration) and DMSO (0.1%, final concentration) were used as positive and vehicle controls, respectively. Results were expressed as a % of the DMSO control.

Data set [4] deals with MCF-7 cells (human breast adenocarcinoma). The data set is described as follows: Cytotoxicity assay (MTS reduction), MCF-7. The format is cell-based. To be noted: for inhibition of growth of MCF7 (in words) / activity at 4 µg/mL: 4 μg/mL; for activity at 4 µg/mL / activity at 20 µg/mL: Homo sapiens, MCF7, 72 h, 3 days, % of DMSO control, read-out: Growth percentage MCF7 (Breast); for activity at 20 µg/mL: 20 μg/mL. As for the experimental part: as §3, §4

Data set [5] relates to SF-268 cells (glioblastoma cells). Description: Cytotoxicity assay (MTS reduction), SF-268. The data set is classed as cell-based, human. The following applies: for inhibition of growth of SF-268 (in words) / activity at 4 µg/mL: 4 μg/mL; for activity at 4 µg/mL / activity at 20 µg/mL: Homo sapiens, SF-268, 72 h, 3 days, % of DMSO control, read-out: Growth percentage SF-268 (CNS); for activity at 20 µg/mL: 20 μg/mL. As for the experimental part: as §3, §4

Turning to `COc1ccc(-c2cnoc2-c2ccc(OC(C)C)cc2OCCCCCCN2CCNCC2)cc1` [5g, 5-{4-Isopropoxy-2-[6-(piperazin-1-yl)hexyloxy]phenyl}-4-(4-methoxyphenyl)isoxazole], in data set [1], the “Cell cytotoxicity (3 days, LDH)” value is 0%. Moreover, the viability (as a rule, a per cent measure of how many cells are alive, often set against a control) at 3 days, 10 µM in data set [2] stood at 60%. For the same molecule, in data set [3], the “inhibition of growth of NCI-H460 (in words)” value is listed as “significantly inhibit the growth”, the activity at 4 µg/mL is 0% and the activity at 20 µg/mL is -1%. In addition, in data set [4], the “inhibition of growth of MCF7 (in words)” value is “significantly inhibit the growth”, the activity at 4 µg/mL came out at 14% and the activity at 20 µg/mL was -3%. Moreover, in data set [5], the “inhibition of growth of SF-268 (in words)” value is given as “significantly inhibit the growth”, the activity at 4 µg/mL is 20% and the activity at 20 µg/mL was -1%.

As for `COc1ccc(-c2cnoc2-c2ccc(OC(C)C)cc2OCCCCCCCN2CCCCC2)cc1` [5l, 5-{4-Isopropoxy-2-[7-(piperidin-1-yl)heptyloxy]phenyl}-4-(4-methoxyphenyl)isoxazole], in data set [1], the “Cell cytotoxicity (3 days, LDH)” value is listed as 0%. For the same molecule, in data set [2], the viability at 3 days, 10 µM was 58%. Moreover, the activity at 4 µg/mL in data set [3] stood at 8%; in data set [4], 29%; in data set [5], 25%. The activity at 20 µg/mL in data set [3] was 1%; in data set [4], 1%; in data set [5], 2%.

With `COc1ccc(-c2cnoc2-c2ccc(OC(C)C)cc2OCCCCCCCN2CCNCC2)cc1` [5k], the “Cell cytotoxicity (3 days, LDH)” value in data set [1] came out at 0%. This molecule also had a viability at 3 days, 10 µM in data set [2] of 68%. The activity at 4 µg/mL came out at 0% in data set [3], 1% in data set [4] and 3% in data set [5]. Also, the activity at 20 µg/mL in data set [3], in data set [4] and in data set [5] was 1% throughout.

With `COc1ccc(-c2cnoc2-c2ccc(OC(C)C)cc2OCCCCCCN2CCOCC2)cc1` [5f, 4-{6-{5-Isopropoxy-2-[4-(4-methoxyphenyl)isoxazol-5-yl]phenoxy}hexyl}morpholine], the “Cell cytotoxicity (3 days, LDH)” value in data set [1] is 17%. Moreover, in data set [2], the viability at 3 days, 10 µM was 53%. For the same molecule, the activity at 4 µg/mL came out at 17% in data set [3], 44% in data set [4] and 38% in data set [5]. Further, the activity at 20 µg/mL is 0% in data set [3], -1% in data set [4] and 1% in data set [5].

`COc1ccc(-c2cnoc2-c2ccc(OC(C)C)cc2OCCCCN2CCOCC2)cc1` [5b, 4-{4-{5-Isopropoxy-2-[4-(4-methoxyphenyl)isoxazol-5-yl]phenoxy}butyl}morpholine]: the “Cell cytotoxicity (3 days, LDH)” value in data set [1] is reported as 13%. The same molecule showed a viability at 3 days, 10 µM in data set [2] of 58%. Further, the activity at 4 µg/mL came to 52% in data set [3], 63% in data set [4] and 58% in data set [5]. In addition, the activity at 20 µg/mL in data set [3] stood at 1%; in data set [4] it was 4%; in data set [5], 3%.

With `COc1ccc(-c2cnoc2-c2ccc(OC(C)C)cc2OCCCCN2CCNCC2)cc1` [5c, 5-{4-Isopropoxy-2-[4-(piperazin-1-yl)butoxy]phenyl}-4-(4-methoxyphenyl)isoxazole], the “Cell cytotoxicity (3 days, LDH)” value in data set [1] is recorded as 33%. The molecule further returned a viability at 3 days, 10 µM in data set [2] of 86%. The activity at 4 µg/mL in data set [3] turned out to be 29%; in data set [4], 7%; in data set [5], 68%. Further, the activity at 20 µg/mL is 0% in data set [3], -1% in data set [4] and -2% in data set [5].

`COc1ccc(-c2cnoc2-c2ccc(OC(C)C)cc2OCCCCCCN2CCCCC2)cc1` [5h, 5-{4-isopropoxy-2-[6-(piperidin-1-yl)hexyloxy]phenyl}-4-(4-methoxyphenyl)isoxazole]: in data set [1], the “Cell cytotoxicity (3 days, LDH)” value was found to be 0%. This molecule showed a viability at 3 days, 10 µM in data set [2] of 57%. Further, in data set [3], the “inhibition of growth of NCI-H460 (in words)” value is “significantly inhibit the growth”, the activity at 4 µg/mL came to 2% and the activity at 20 µg/mL is -1%. Besides, in data set [4], the “inhibition of growth of MCF7 (in words)” value is “significantly inhibit the growth”, the activity at 4 µg/mL is 13% and the activity at 20 µg/mL is -3%. In data set [5], the “inhibition of growth of SF-268 (in words)” value is recorded as “significantly inhibit the growth”, the activity at 4 µg/mL turned out to be 4% and the activity at 20 µg/mL is -1%.

For `COc1ccc(-c2cnoc2-c2ccc(OCCCCCCN3CCNCC3)cc2O)cc1` [8a], in data set [1], the “Cell cytotoxicity (3 days, LDH)” value amounted to 0%. This molecule had a viability at 3 days, 10 µM in data set [2] of 64%. Besides, the activity at 4 µg/mL in data set [3] is 29%; in data set [4] it was 7%; in data set [5], 68%. Besides, the activity at 20 µg/mL in data set [3] was 0%; in data set [4] it was -1%; in data set [5], -2%.

Take `CC(C)Oc1ccc2c(=O)c(-c3ccccc3)coc2c1` [Ipriflavone, reference compound]: the “Cell cytotoxicity (3 days, LDH)” value in data set [1] was found to be 0%. This molecule showed a viability at 3 days, 10 µM in data set [2] of 77%.

In the case of `COc1ccc(-c2cnoc2-c2ccc(OC(C)C)cc2OCCCCN2CCCCC2)cc1` [5d, 5-{4-Isopropoxy-2-[4-(piperidin-1-yl)butoxy]phenyl}-4-(4-methoxyphenyl)isoxazole], the “Cell cytotoxicity (3 days, LDH)” value in data set [1] is listed as 0%. The same molecule showed a viability at 3 days, 10 µM in data set [2] of 78%. For the same molecule, the activity at 4 µg/mL worked out at 68% in data set [3], 90% in data set [4] and 119% in data set [5]. Besides, the activity at 20 µg/mL in data set [3] came out at 1%; in data set [4], 1%; in data set [5], 2%.

On to `COc1ccc(-c2cnoc2-c2ccc(OC(C)C)cc2OCCCCCCCN2CCOCC2)cc1` [5j, 4-{7-{5-isopropoxy-2-[4-(4-methoxyphenyl)isoxazol-5-yl]phenoxy}heptyl}morpholine], for which the “Cell cytotoxicity (3 days, LDH)” value in data set [1] is on record as 12%. In data set [2], this molecule yielded a viability at 3 days, 10 µM of 54%. Besides, the activity at 4 µg/mL came to 10% in data set [3], 25% in data set [4] and 32% in data set [5]. The figures for the activity at 20 µg/mL in data set [3], in data set [4] and in data set [5] were 0%, 1% and 2%, respectively.

`COc1ccc(-c2cnoc2-c2ccc(OC(C)C)cc2OCCCCCCCN2CCCC2)cc1` [5i, 5-{4-Isopropoxy-2-[7-(pyrrolidin-1-yl)heptyloxy]phenyl}-4-(4-methoxyphenyl)isoxazole]: the “Cell cytotoxicity (3 days, LDH)” value in data set [1] was determined as 0%. This molecule showed a viability at 3 days, 10 µM in data set [2] of 63%. Further, the activity at 4 µg/mL worked out at 11% in data set [3], 32% in data set [4] and 30% in data set [5]. For the same molecule, the results for the activity at 20 µg/mL in data set [3], in data set [4] and in data set [5] were 1%, 2% and 2%, respectively.

Regarding `COc1ccc(-c2cnoc2-c2ccc(OC(C)C)cc2O)cc1` [compound 3, 5-Isopropoxy-2-[4-(4-methoxyphenyl)isoxazol-5-yl]phenol], in data set [1], the “Cell cytotoxicity (3 days, LDH)” value stood at 68%. The viability at 3 days, 10 µM in data set [2] worked out at 6%.
